Paper PMC5893132, “Selective inhibition of histamine-evoked Ca^2+ signals by compartmentalized cAMP in human bronchial airway smooth muscle cells” (Cell Calcium, 2018)
Structures can show the parent of a compound that is named as a salt. No end group written: not given here. *: point of attachment. Myristoyl = CCCCCCCCCCCCCC(=O)*

How the values were obtained:
Assay type in all cases: cell-based, human
hBASMCs = assay: Increase in [Ca2+]i evoked directly by stimuli in fluo-4-loaded hBASMCs; conditions: for effect of removal of extracellular Ca2+ on the peak increase in [Ca2+]i evoked by the stimulus: HBS vs Ca2+-free HBS (2.5 mM BAPTA added 37 s before the stimulus); for increase in [Ca2+]i evoked by the substance itself: hBASMCs from donors 1-3, PGE2 and sulprostone in Ca2+-free HBS
Experimental: (§1) Two methods were used to measure [Ca^2+]i in populations of hBASMCs. For measurements using a FlexStation III plate-reader (Molecular Devices, Sunnyvale, CA, USA), hBASMCs were seeded into 96-well plates (10^4 cells per well). After about 4 days, when the cells were confluent, the medium was replaced with SMGM-2 without serum or growth factor supplements, and the cells were used after a further 24 h. This period in serum-free medium increased by about 2-fold the amplitude of the increases in [Ca^2+]i evoked by histamine (results not shown). Cells were washed with HEPES-buffered saline (HBS: 135 mM NaCl, 5.9 mM KCl, 1.2 mM MgCl2, 1.5 mM CaCl2, 11.6 mM HEPES, 11.5 mM D-glucose, pH 7.3), and loaded with fluo-4 by incubation with fluo-4-AM (2 μM) in HBS (100 μL per well) containing pluronic F127 (0.02%, v/v) and probenecid (2.5 mM). After 1 h at 20 °C, the medium was replaced with HBS (100 μL per well) containing probenecid (2.5 mM). After a further incubation at 20 °C for 1 h, the medium was replaced with HBS (60–80 μL per well) or nominally Ca^2+-free HBS, and the cells were used immediately for experiments at 20 °C. In some experiments, BAPTA (2.5 mM) was added to HBS during the recording; this reduced the free [Ca^2+] of the HBS to ∼120 nM without affecting the pH. Drug additions (20 μL at 4 or 5 times the final concentration) were added automatically. Fluorescence from fluo-4 (excitation 485 nm, emission 525 nm) was recorded at 1.44-s intervals using Softmax Pro 5.4 (Molecular Devices). Fluorescence was calibrated to [Ca^2+]i from: [Ca^2+]i=KDCa×(F−Fmin/Fmax−F) where, KDCa is the equilibrium dissociation constant of fluo-4 for Ca^2+ (345 nM), F is the recorded fluorescence, and Fmin and Fmax are the fluorescence values recorded after addition of triton-X-100 (0.1%, v/v) with either BAPTA (10 mM, Fmin) or CaCl2 (10 mM, Fmax). Although treatment with triton-X-100 releases fluo-4 from cells into the medium, the fluo-4 fluorescence is captured with the same efficiency whether it is trapped within cells or dispersed within the small volume of the wells (unpublished observations). Fmax was determined for each well at the end of an experiment, and the average value was used for each column of 8 wells. Fmin was determined from parallel wells on each plate.
(§2) For measurements of [Ca^2+]i using an FDSS 7000 FLIPR (Hamamatsu), hBASMCs were seeded into 384-well plates (8000 cells per well) in 20 μL of SMGM-2 containing 5% serum. After 24 h, the medium was replaced with 15 μL of serum-free SMGM-2, and after a further 6 h the cells were loaded with Ca^2+ indicator by addition of FLIPR calcium 4 assay kit (Molecular Devices) supplemented with probenecid (2.5 mM). The exact composition of this ‘no-wash’ indicator kit is not disclosed by the manufacturer, but it contains fluo-4-AM and components that reduce background fluorescence. The manufacture’s stock solution was diluted 10-fold into HBSS containing BSA (0.1%, w/v) and HEPES (20 mM); 5 μL of this solution was then added to each well (containing 15 μL of serum-free SMGM-2). After 2 h at 37 °C in humidified air containing 5% CO2, the plate was used for experiments at 20 °C. Most additions (5 μL) were prepared in HBSS supplemented with HEPES (20 mM) and BSA (0.1%, w/v). For more prolonged incubations, drugs were diluted in the initial loading medium (to avoid changes in dye-loading during the ‘no wash’ protocol). Fluorescence signals (excitation at 480 nm, emission at 540 nm) were calibrated to [Ca^2+]i after measurement of Fmin and Fmax uniquely for each well, using a KDCa = 345 nM.
(§3) All concentration-effect relationships were determined by addition of different drug concentrations to individual wells in the same multi-well plate, rather than by sequential additions to the same well. […]

[1] = tested on: intracellular cAMP in hBASMCs; assay: Intracellular cAMP in hBASMCs by [3H]-adenine labeling; conditions: 5 min in HBS, TCS2510 1 μM; for effect on intracellular cAMP: PGE2 10 μM, butaprost 10 μM, [3H]-adenine labeling
Experimental: hBASMCs in 24-well plates (50,000 cells per well) were grown to confluence. The medium was then replaced with serum-free SMGM-2, and after 24 h this was supplemented with [^3H]-adenine (1 μCi per well, 18.4 Ci·mmol^−1). After 2 h at 37 °C in humidified air with 5% CO2, the medium was removed, and the cells were washed twice with HBS. The cells were stimulated at 20 °C in HBS. Incubations were terminated by removal of the medium, addition of ice-cold trichloroacetic acid (5%, 1 mL) and rapid freezing. This protocol ensured that only intracellular [^3H]-cAMP was detected. [^3H]-adenine nucleotides were separated by column chromatography, and the activity was determined by liquid scintillation counting using Ultra-gold scintillant. Results are presented as [^3H]-cAMP activity as a percentage of the sum of the activities of the fractions containing [^3H]-cAMP, [^3H]-ATP, [^3H]-ADP and [^3H]-AMP; henceforth, reported as [^3H]-cAMP (%).

[2] = tested on: histamine-evoked Ca^2+ signals in hBASMCs; assay: Histamine-evoked Ca2+ signals in populations of fluo-4-loaded hBASMCs; conditions: for effect on histamine-evoked Ca2+ signals: pre-treatment: 8-Br-cGMP, IBMX 20 min, forskolin 10 μM, NKH477 10 μM, butaprost 10 μM, TCS2510 1 μM 5 min; for effect on the inhibition of histamine-evoked Ca2+ signals by a maximally effective concentration of isoproterenol / effect on the sensitivity to isoproterenol of histamine-evoked Ca2+ signals: inhibitor pre-treatment 30 min, then isoproterenol 1 min
Experimental: as §1, §2, §3

NCCc1c[nH]cn1 [histamine, Histamine dihydrochloride]
effect of removal of extracellular Ca2+ on the peak increase in [Ca2+]i evoked by the stimulus (hBASMCs): unaffected | EC50 (hBASMCs; Homo sapiens, histamine alone, HBSS, n = 7, read-out: sensitivity to histamine (pEC50) (converted)): 1.05 µM | increase in [Ca2+]i evoked by the substance itself (hBASMCs): Cells from all three donors responded | maximal amplitude of the peak increase in [Ca2+]i evoked by histamine (hBASMCs; histamine alone, HBSS, n = 7): 242 ± 15 nM

CCCCC[C@H](O)/C=C/[C@H]1[C@H](O)CC(=O)[C@@H]1C/C=C\CCCC(=O)O [PGE2, prostaglandin E2]
effect on intracellular cAMP [1]: stimulated cAMP accumulation | increase in [Ca2+]i evoked by the substance itself (hBASMCs): directly evoked a significant increase in [Ca^2+]i

bradykinin acetate (RPPGFSPFR; also: acetate salt; UniProt P01042 381-389, looked up)
effect of removal of extracellular Ca2+ on the peak increase in [Ca2+]i evoked by the stimulus (hBASMCs): unaffected | increase in [Ca2+]i evoked by the substance itself (hBASMCs): Cells from all three donors responded

O=C1CC[C@H](C=C[C@@H](O)Cc2ccccc2)N1CCCCCCc1nn[nH]n1 [TCS2510, (5R)-5-[(3S)-3-hydroxy-4-phenyl-1-buten-1-yl]-1-[6-(2H-tetrazol-5-yl)hexyl]-2-pyrrolidinone]
effect on intracellular cAMP [1]: stimulated formation of cAMP | production of cAMP at maximal concentration compared with forskolin, NKH477, isoproterenol or butaprost ([1]; equally effective in inhibiting histamine-evoked Ca2+ signals): far less | increase in [Ca2+]i evoked by the substance itself (hBASMCs): Neither butaprost nor TCS2510 evoked an increase in [Ca^2+]i | effect on histamine-evoked Ca2+ signals [2]: inhibited the Ca^2+ signals evoked by histamine

18:1 lysophosphatidic acid [LPA]
increase in [Ca2+]i evoked by the substance itself (hBASMCs): Cells from all three donors responded

Cc1ccc(S(=O)(=O)c2c(C)cc(C)cc2C)cc1 [ESI-05, 4-methylphenyl-2,4,6-trimethylsulphone]
effect on the concentration-dependent inhibition of histamine-evoked Ca2+ signals by isoproterenol ([2]; ESI-05 25 μM, 30 min in HBS, histamine 10 μM added 1 min after isoproterenol, n = 9): had no effect

Nc1ncnc2c1ncn2[C@@H]1O[C@H](COP(=O)(O)OP(=O)(O)OP(=O)(O)O)[C@@H](O)[C@H]1O [ATP]
increase in [Ca2+]i evoked by the substance itself (hBASMCs): cells from only one donor responded robustly to ATP (donor 3)

C=C[C@@]1(C)CC(=O)[C@]2(O)[C@@]3(C)[C@@H](O)CCC(C)(C)[C@@H]3C(OC(=O)CCN(C)C)[C@H](OC(C)=O)[C@@]2(C)O1.Cl (stereo partly drawn) [NKH477, N,N-dimethyl-(3R,4aR,5S,6aS,10S,10aR,10bS)-5-(acetyloxy)-3-ethenyldodecahydro-10,10b-dihydroxy-3,4a,7,7,10a-pentamethyl-1-oxo-1H-naphtho[2,1-b]pyran-6-yl ester β-alanine hydrochloride]
effect on histamine-evoked Ca2+ signals [2]: mimicked the effect of isoproterenol

CS(=O)(=O)NC(=O)CCC/C=C\C[C@H]1C(=O)C[C@@H](O)[C@@H]1/C=C/[C@@H](O)COc1ccccc1 [sulprostone, Sulprostone]
increase in [Ca2+]i evoked by the substance itself (hBASMCs): also evoked an increase in [Ca^2+]i

O=C(Nc1ncnc2c1ncn2[C@@H]1O[C@@H]2COP(=O)(O)OC2C1O)c1ccccc1 (stereo in doubt) [6-Bnz-cAMP]
amplitude of the Ca2+ signals evoked by histamine, % of paired controls ([2]; 500 μM, 20 min pre-treatment, histamine 10 μM, n = 5): 54 ± 4%

C[N+](C)(C)CCOC(N)=O [carbachol, carbamylcholine chloride]
effect of removal of extracellular Ca2+ on the peak increase in [Ca2+]i evoked by the stimulus (hBASMCs): unaffected | increase in [Ca2+]i evoked by the substance itself (hBASMCs): cells from only one other donor responded robustly to carbachol (donor 2)

Nc1ncnc2c1nc(Sc1ccc(Cl)cc1)n2[C@@H]1O[C@@H]2COP(O)(=S)O[C@H]2[C@H]1O (stereo partly shown) [Rp-8-CPT-cAMPS, Rp-8-CPT-cAMPs]
effect on the inhibition of histamine-evoked Ca2+ signals by a maximally effective concentration of isoproterenol ([2]; histamine 10 μM, n = 9): had no significant effect | effect on the sensitivity to isoproterenol of histamine-evoked Ca2+ signals ([2]; histamine 10 μM, n = 9): significant decrease in the sensitivity to isoproterenol, but the effect was small

CCCCCCOC(=O)[C@]1(O)C[C@@H]2O[C@@]1(C)n1c3ccccc3c3c4c(c5c6ccccc6n2c5c31)C(=O)NC4 [KT5720, (9R,10S,12S)-2,3,9,10,11,12-hexahydro-10-hydroxy-9-methyl-1-oxo-9,12-epoxy-1H-diindolo[1,2,3-fg:3′,2′,1′-kl]pyrrolo[3,4-i][1,6]benzodiazocine-10-carboxylic acid, hexyl ester]
effect on the inhibition of histamine-evoked Ca2+ signals by a maximally effective concentration of isoproterenol ([2]; histamine 10 μM, n = 9): had no significant effect | effect on the sensitivity to isoproterenol of histamine-evoked Ca2+ signals ([2]; histamine 10 μM, n = 9): Neither KT5720 nor PKI-myr significantly affected

CO[C@@H]1[C@@H]2OP(=O)(O)OC[C@H]2O[C@H]1n1c(Sc2ccc(Cl)cc2)nc2c(N)ncnc21 [8-pCPT-2′-O-Me-cAMP]
amplitude of the Ca2+ signals evoked by histamine, % of paired controls ([2]; 300 μM pre-treatment, histamine 10 μM): 103 ± 8%

myristoylated protein kinase inhibitor 14–22 amide (Myristoyl-SGRTGRRNA-NH2; SMILES CCCCCCCCCCCCCC(=O)N[C@@H](CO)C(=O)NCC(=O)N[C@@H](CCCNC(=N)N)C(=O)N[C@H](C(=O)NCC(=O)N[C@@H](CCCNC(=N)N)C(=O)N[C@@H](CCCNC(=N)N)C(=O)N[C@@H](CC(N)=O)C(=O)N[C@@H](C)C(N)=O)[C@@H](C)O; UniProt P61925 14-22, looked up, fragment) [PKI-myr]
effect on the inhibition of histamine-evoked Ca2+ signals by a maximally effective concentration of isoproterenol ([2]; histamine 10 μM, n = 9): had no significant effect | effect on the sensitivity to isoproterenol of histamine-evoked Ca2+ signals ([2]; histamine 10 μM, n = 9): Neither KT5720 nor PKI-myr significantly affected

Cl.Cl.O=S(=O)(NCCNCC=Cc1ccc(Br)cc1)c1cccc2cnccc12 [H89, N-[2-[[3-(4-bromophenyl)-2-propenyl]amino]ethyl]-5-isoquinolinesulfonamide dihydrochloride]
effect on the inhibition of histamine-evoked Ca2+ signals by a maximally effective concentration of isoproterenol ([2]; histamine 10 μM, n = 9): had no significant effect | effect on the sensitivity to isoproterenol of histamine-evoked Ca2+ signals ([2]; histamine 10 μM, n = 9): significantly reduced the sensitivity to isoproterenol

Nc1ncnc2c1nc(Br)n2[C@@H]1O[C@@H]2COP(=O)(O)O[C@H]2[C@H]1O [8-Br-cAMP]
pIC50 for inhibition of histamine-evoked Ca2+ signals ([2]; pre-treatment 20 min, histamine 10 μM, n = 6): 3.32 ± 0.16

Cn1c(=O)c2c(ncn2C)n(C)c1=O [caffeine]
increase in [Ca2+]i evoked by the substance itself (hBASMCs): A lack of response
